Marks after values point to notes of the source that are not given here.
Legend:
cells = assay: Comparison of DNA dyes: toxicity; type: cell-based; conditions: Table 3, probe of the disclosure
Description: The major advantages of probe TC are: longer excitation/emission wavelengths (which avoids the cell damage due to the UV-light absorption commonly observed with probes like DAPI and Hoechst dyes, and auto-fluorescence from the cellular organelles and biomolecules), larger stoke shift (this provides additional advantage that avoids the self-absorption of higher energy part of their emission, useful in FRET and BRET based assays), good cell permeability (this is the major limitation of existing probes like propidium iodide, TO-PRO-dyes), non-toxicity (toxicity is the major limitation of NIR-fluorescence probes like DRAQ5 probe) and specific staining (commonly observed with SYTO and other dyes are non-specific in nature). Many commercial/reported dyes in literature are known to bind single stranded DNA, RNA etc. The probe TC is highly specific to double stranded DNA. […] In presence of AT-rich DNA, TC is a better probe than EtBr and PI which are highly toxic to cells.

DNA = assay: Comparison of DNA dyes: sequence selectivity and fluorescence of free/DNA bound dye; type: binding
(D2)mix = assay: Thermal denaturation (UV-melting) of dsDNA with probe TC; type: binding
HEK293 cells = assay: MTT cytotoxicity assay; type: cell-based
Protocol: 10,000 HEK293 cells are seeded in 96-well plate and cultured for about 12 hours. […] Water is used as a control. About 20 μL of MTT (about 5 mg/mL) is added in each well, incubated for about 3 hours at about 37° C. and about 100 μL of DMSO is added. Readings are taken at about 570 nm in ELISA reader (VERSA Max microplate reader, Molecular Devices). The data is normalized with control and plotted with mean and standard error.

(AT)20 = assay: Agarose gel electrophoresis staining of dsDNA band; type: binding; conditions: 3% agarose gel, about 0.6 μg dsDNA, UV-illumination
[1] = Table 3, probe of the disclosure

CCN(CC)c1ccc2cc(/C=C/c3sc4ccccc4[n+]3C)c(=O)oc2c1 [TC, (E)-3-(2-(N-methyl-benzo[d]thiazol-2-yl)vinyl)-7-(diethylamino)-2H-chromen-2-one]
Toxicity (cells): Non-Toxic | Fluorescence maxima DNA bound dye (DNA; [1]): 610 nm | Fluorescence maxima free dye (DNA; [1]): 641 nm | Fluorescence qauntum yield (ΦF) DNA bound dye (DNA; Table 3, superscript b): 0.36^b | preferential binding affinity, AT-sites versus GC-sites (DNA; fluorescence studies with dsDNAs): towards AT-sites than GC-sites | Tm(DNA + TC) ((D2)mix): 73.5 °C | ΔTm ((D2)mix; TC bound vs unbound): 1.6 °C | cytotoxicity, dose dependent MTT (HEK293 cells; HEK293 cells, 2.5, 5 and 7.5 μM, about 30 minutes): non-toxic | viable cells (HEK293 cells; HEK293 cells, about 5 μM TC, about 24 hours): about 64% | gel staining of (AT)20 band ((AT)20): strong fluorescence intensity

From patent US10745393B2, “Small molecular probes, processes and use thereof” (JAWAHARLAL NEHRU CENTRE FOR ADVANCED SCIENTIFIC RESEARCH, priority 2014, dated 2020)
